Experimental data: PMC8977893 (Frontiers in Cell and Developmental Biology, 2022)
Several values for one entry are separate records, joined by “and”; a condition that tells them apart may be missing. Identical values can stand only once.

Legend:
SH-SY5Y cells [1] = assay type: cell-based, human
human platelets [2] = assay type: cell-based; conditions: fibrinogen 0.5 to 2 mg/ml before PrP(106–126) 20 µM; 1 mM Ca2+
[3] = tested on: calpain in washed human platelets; assay type: cell-based
SH-SY5Y cells [4] = assay type: cell-based, human; remark: listed apart in the source
human platelets [5] = assay type: cell-based; conditions: fibrinogen 2 mg/ml; PrP 20 µM
talin in human platelets = assay type: cell-based
SH-SY5Y cells [6] = assay type: cell-based, human; remark: listed apart in the source
[7] = biological target: fibrinogen from human plasma (human, UniProt P02671 36-866; P02675 45-491; P02679 27-453); assay: SPR; conditions: both partners purified

fibrinogen: thrombogenic plasma protein fibrinogen from human plasma (Sigma #F4883)
attenuation of the rise in ΔΨm on preincubation with fibrinogen (SH-SY5Y cells [1]): 1.7 fold
effect of fibrinogen pretreatment on prion-induced rise in [Ca2+]i (human platelets [2]): attenuated prion-induced rise in [Ca^2+]i in a dose-dependent manner
drop in calpain activity on fibrinogen preincubation [3]: 30%
abrogation of the PrP-induced FSC increase by prior fibrinogen treatment (SH-SY5Y cells [4]): 16.34% ± 17.85
effect of prior fibrinogen exposure on prion-induced extracellular vesicle shedding (human platelets [5]): completely thwarted
effect of fibrinogen on prion-mediated cleavage of talin (talin in human platelets; fibrinogen 2 mg/ml preincubation, immunoblot, 190 kDa product): completely prevented prion-mediated cleavage of talin
Cell line MTT (viability, Vehicle = 100) (SH-SY5Y cells [6]): 101.27 and 76.19 and 118.37
effect of fibrinogen preincubation on PrP-induced loss of viability (SH-SY5Y cells [6]; 48 h): completely restored

C[S+](C)[O-] [DMSO, dimethylsulfoxide, reference compound]
Cell line MTT (viability, Vehicle = 100) (SH-SY5Y cells [6]): 15.72 and 26.11 and 18.47

CNc1ccc2oc(C[C@H]3O[C@@]4(CC[C@H]3C)O[C@H]([C@H](C)C(=O)c3ccc[nH]3)[C@H](C)C[C@H]4C)nc2c1C(=O)O [A23187, reference compound]
calpain activity in platelets (in words) [3]: significant enhancement in calpain activity
proteolysis of talin (235 kDa to 190 kDa fragment) (talin in human platelets): complete proteolysis of talin

B1: PrP(106–126) (peptide)
peptide: KTNMKHMAGAAAAGAVVGGLG
notes: also called prion peptide; prion
Kd [7]: 512 ± 89 nM
